Calls of active or inactive are those of the source. The rule behind the calls is not given here.
Tests used:
HL-60 [1] = assay: Antiproliferative activity against human HL60 cells assessed as reduction in cell viability after 48 hrs by MTT assay; format: functional, cell-based; conditions: HL-60, 48 h
T-24 [2] = assay: Induction of apoptosis in human T24 cells assessed as increase in PARP cleavage at 11 to 22 uM by Western blot analysis; format: functional, cell-based
HL-60 [3] = assay: Induction of DNA damage in human HL60 cells assessed as increase in gammaH2AX expression at 11 to 22 uM by Western blot analysis; format: functional, cell-based
T-24 [4] = assay: Antiproliferative activity against human T24 cells assessed as reduction in cell viability after 48 hrs by MTT assay; format: functional, cell-based; conditions: T-24, 48 h
HL-60 [5] = assay: Induction of apoptosis in human HL60 cells assessed as increase in PARP cleavage at 11 to 22 uM by Western blot analysis; format: functional, cell-based
HL-60 [6] = assay: Potency index, ratio of aphidicolin IC50 to compound IC50 for antiproliferative activity against human HL60 cells; format: functional
T-24 [7] = assay: Induction of DNA damage in human T24 cells assessed as increase in gammaH2AX expression at 11 to 22 uM by Western blot analysis; format: functional, cell-based

| Compound | IC50 (HL-60 [1]) [µM] | Activity (T-24 [2]) | Activity (HL-60 [3]) | IC50 (T-24 [4]) [µM] | Activity (HL-60 [5]) | Ratio IC50 (HL-60 [6]) | Activity (T-24 [7]) |
| --- | --- | --- | --- | --- | --- | --- | --- |
| C[C@@]1(CO)[C@H](O)CC[C@@]2(C)[C@H]1CC[C@H]1C[C@@H]3C[C@@]12CC[C@]3(O)CO [APHIDICOLIN] | 24.4 | – | – | – | – | – | – |
| C[C@@]1(CO)[C@H](O)CC[C@@]2(C)[C@H]1C(=O)C[C@H]1C[C@@H]3C[C@@]12CC[C@]3(O)CO | 6.1 | Active | Active | 2.5 | Active | 4 | Active |
